Results on 5 compounds are retold here after ChEMBL document CHEMBL1141028, “Novel NGF-potentiating diterpenoids from a Brazilian medicinal plant, Ptychopetalum olacoides” (Bioorg Med Chem Lett, 2009).

The subject of data set [1] is PC-12. Briefly: Enhancement of neurite outgrowth in rat PC12 cells assessed as morphological changes after 4 days by phase-contrast microscopy in absence of NGF. It is filed as functional, cell-based.
The test system of data set [2] is PC-12. Briefly: Enhancement of NGF-induced neurite outgrowth in rat PC12 cells assessed as morphological changes after 4 days by phase-contrast microscopy. It counts as functional, cell-based.
The subject of data set [3] is PC-12. Briefly: Cytotoxicity against rat PC12 cells at 50 uM. It counts as cell-based. The settings on record: pc-12, 50 µM.
Data set [4] concerns PC-12. Briefly: Enhancement of neurite length extending from cell bodies in NGF-mediated rat PC12 cells at 30 uM after 4 days. It counts as functional.
Data set [5] relates to PC-12. Briefly: Enhancement of neurite length extending from cell bodies in NGF-mediated rat PC12 cells at 10 uM after 4 days. It counts as functional.
Data set [6] deals with PC-12. Briefly: Enhancement of neurite length extending from cell bodies in NGF-mediated rat PC12 cells at 1 uM after 4 days. It is filed as functional.
Data set [7] concerns PC-12. Briefly: Enhancement of neurite length extending from cell bodies in NGF-mediated rat PC12 cells at 0.1 uM after 4 days. It counts as functional.
Data set [8] has as its system PC-12. Briefly: Enhancement of NGF-induced neurite outgrowth in rat PC12 cells assessed as morphological changes at 0.1 to 50 uM after 4 days by phase-contrast microscopy. It is filed as functional, cell-based.
For data set [9], the system named is PC-12. As to the kind of experiment: Enhancement of neurite length extending from cell bodies in NGF-mediated rat PC12 cells at 0.1 to 50 uM after 4 days. It is filed as functional, cell-based.
The subject of data set [10] is PC-12. As to the kind of experiment: Enhancement of neurite length extending from cell bodies in NGF-mediated rat PC12 cells at 50 uM after 4 days. It counts as functional.
Data set [11] concerns PC-12. Briefly: Enhancement of neurite length extending from cell bodies in NGF-mediated rat PC12 cells after 4 days relative to control. It counts as functional, cell-based.

The source made the active and inactive calls. The rule behind the calls is not given here.

Regarding `CC1=CCC[C@@H]2[C@@](CO)(CCc3ccoc3)[C@H](C)[C@H](O)C[C@@]12C`, in [1], the result was inactive. The Activity result in data set [2] is “Dose-dependent effect”; in data set [3], “Toxic”; in data set [4], 236.3 um; in [5] it was 106.5 um; in data set [6], 101.7 um; in data set [7] it was 95.3 um.
In the case of `COC1C=C(CC[C@@]2(C)[C@H](C)[C@H](O)[C@H](O)[C@@]3(C)C(C)=CCC[C@H]23)C(=O)O1` (some centres not stated), the outcome in data set [1], in data set [8] and in data set [9] was inactive.
For the compound `CC1=CCC[C@@H]2[C@@](C)(CCc3ccoc3)[C@H](C)[C@@H]3OC(C)(C)O[C@@H]3[C@@]12C`, the result in [9] was inactive.
For `CC1=CCC[C@@H]2[C@@](C)(CCc3ccoc3)[C@H](C)[C@H](O)[C@H](O)[C@@]12C`, the result in data set [1] was inactive. Moreover, the Activity entry in data set [2] was “Dose-dependent effect”; in data set [10], 205.3 um; in data set [4], 201.5 um; in data set [5], 173.1 um; in data set [6], 115.8 um; in [7], 104 um. Besides, the Activity result in data set [11] is “Dose-dependent effect”.
Take `CC1=CCC[C@@H]2[C@@](C)(CCC3=CC(=O)OC3)[C@H](C)[C@H](O)C[C@@]12C`: the outcome in [1], in [8] and in data set [9] was inactive.
